Experimental data published in ChEMBL document CHEMBL1201862, “PubChem BioAssay data set” (2004).
The source made the active and inactive calls.

Legend:
[1] = target: Eukaryotic translation initiation factor 4E (Mus musculus, UniProt P63073); assay: eIF4E–eIF4G protein interaction inhibitors, dose response, biochemical, TR-FRET (AID 855); assay type: functional;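 also: potency for disrupting eIF4E binding to eIF4GI seen as loss of FRET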
[2] = target: T1, Heat shock factor protein 1 (Mus musculus, UniProt P38532); assay: inhibition of MG132-induced HSE-luciferase signal, confirmation, cell-based, NIH3T3, luminescence, dose retest (AID 2382); assay type: functional;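 also: NIH3T3 fibroblasts with HSF1-driven luciferase reporter stressed by proteasome inhibitor MG132; luminescence from HSF1-driven luciferase expression after 8 hours of MG132 stress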
T1 sequence (P38532 whole entry): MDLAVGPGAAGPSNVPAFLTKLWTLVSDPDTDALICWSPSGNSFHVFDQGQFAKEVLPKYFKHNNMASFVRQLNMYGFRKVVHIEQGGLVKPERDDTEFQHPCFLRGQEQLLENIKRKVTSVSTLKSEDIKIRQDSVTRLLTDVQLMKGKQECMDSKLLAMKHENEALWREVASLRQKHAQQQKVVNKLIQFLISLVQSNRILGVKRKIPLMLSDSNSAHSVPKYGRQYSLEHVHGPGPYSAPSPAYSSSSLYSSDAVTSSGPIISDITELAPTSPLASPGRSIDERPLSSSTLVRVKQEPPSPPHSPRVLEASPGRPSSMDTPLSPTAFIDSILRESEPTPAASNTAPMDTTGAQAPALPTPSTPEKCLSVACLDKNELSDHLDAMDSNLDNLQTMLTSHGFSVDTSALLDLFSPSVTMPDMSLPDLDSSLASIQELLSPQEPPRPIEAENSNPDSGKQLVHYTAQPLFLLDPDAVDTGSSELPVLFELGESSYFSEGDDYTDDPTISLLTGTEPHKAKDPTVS

Streptococcus = assay: Group A Streptococcus viability loss, dose response, counter-screen for streptokinase expression inhibitor project, luminescence, BacTiterGlo (AID 1915); assay type: functional, organism-based;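 also: potency for reduction of bacterial viability or growth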
[3] = A cytotoxicity screen of small molecule inhibitors of the PhoP region in Salmonella typhi identified in the primary screen. [Related pubchem assays: 1850, 1864, 1985 ]; assay type: functional
[4] = system: Streptococcus sp. 'group A'; assay: growth inhibition of control SK(-) GAS strain, dose response, counter-screen for streptokinase expression inhibitor project, luminescence, kanamycin, BacTiterGlo, confirmation (AID 1900); assay type: functional, organism-based
[5] = inhibitors of intracellular T. cruzi replication, confirmation, NIH3T3 host cells, beta-gal luminescence (AID 2044); assay type: functional, cell-based;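 also: intracellular parasites grown in NIH/3T3 mouse fibroblasts as host cells; luminescent beta-galactosidase reporter signal from transgenic T. cruzi replicating inside host cells; inhibitors lower the luminescence signal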
[6] = cytotoxicity toward NIH3T3 fibroblasts, dose response, counter-screen, cell-based, ATP luminescence, mouse fibroblasts (AID 2010); assay type: functional;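 also: cells exposed to compound for about 90 hours before reading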
NADPH oxidase 1 = target: T2, NADPH oxidase 1 (Homo sapiens, UniProt Q9Y5S8); assay type: functional, cell-based;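 also: Cell-based assay with luminescence read-out, IC50 derived from inhibitor dose-response curves; intracellular ROS from endogenous NOX1 in intact HT29 colon cancer cells; potency of inhibitors that lower the ROS luminescence signal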
T2 sequence (Q9Y5S8 whole entry): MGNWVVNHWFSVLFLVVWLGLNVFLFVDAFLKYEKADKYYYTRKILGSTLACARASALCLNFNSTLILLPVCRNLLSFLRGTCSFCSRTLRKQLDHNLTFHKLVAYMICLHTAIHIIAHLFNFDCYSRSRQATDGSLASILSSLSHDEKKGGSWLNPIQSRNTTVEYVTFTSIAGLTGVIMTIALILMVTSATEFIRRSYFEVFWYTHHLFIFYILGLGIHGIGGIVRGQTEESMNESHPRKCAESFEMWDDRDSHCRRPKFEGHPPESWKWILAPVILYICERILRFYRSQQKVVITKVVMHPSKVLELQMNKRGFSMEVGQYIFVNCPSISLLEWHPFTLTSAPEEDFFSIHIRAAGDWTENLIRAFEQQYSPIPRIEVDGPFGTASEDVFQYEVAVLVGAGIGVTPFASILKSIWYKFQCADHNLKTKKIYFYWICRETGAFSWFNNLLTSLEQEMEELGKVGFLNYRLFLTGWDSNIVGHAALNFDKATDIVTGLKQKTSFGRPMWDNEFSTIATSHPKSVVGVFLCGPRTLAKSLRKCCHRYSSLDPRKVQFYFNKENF

Genome polyprotein = target: T3, Genome polyprotein (Hepatitis C virus, UniProt Q2Q167); assay: HCV core protein dimerization inhibitors, dose response, biochemical, TR-FRET (AID 2159); parameters: species or system Hepacivirus hominis;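 also: blocks dimerization of HCV core protein measured by TR-FRET between tagged core106 pairs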
T3 sequence (Q2Q167 whole entry): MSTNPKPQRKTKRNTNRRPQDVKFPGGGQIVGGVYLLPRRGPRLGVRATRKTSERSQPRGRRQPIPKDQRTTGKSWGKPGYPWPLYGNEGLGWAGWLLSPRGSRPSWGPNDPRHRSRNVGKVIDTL

CAAX prenyl protease 2 = target: T4, CAAX prenyl protease 2 (Saccharomyces cerevisiae S288c, UniProt Q03530); assay type: biochemical
T4 sequence (Q03530 whole entry): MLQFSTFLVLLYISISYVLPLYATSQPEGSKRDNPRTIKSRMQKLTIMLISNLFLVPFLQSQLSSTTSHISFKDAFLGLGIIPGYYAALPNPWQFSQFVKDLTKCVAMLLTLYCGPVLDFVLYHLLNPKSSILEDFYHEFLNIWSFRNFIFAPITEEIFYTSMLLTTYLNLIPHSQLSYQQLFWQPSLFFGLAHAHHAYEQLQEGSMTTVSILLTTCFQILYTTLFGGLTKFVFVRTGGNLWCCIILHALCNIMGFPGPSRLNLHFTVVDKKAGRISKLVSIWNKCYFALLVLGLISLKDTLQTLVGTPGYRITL

[7] = HEp-2 cell cytotoxicity, dose response, cytotoxicity control for RSV inhibitor project, HTS (AID 2410); assay type: functional; conditions: human respiratory syncytial virus
Prothrombin = Prothrombin (Homo sapiens, UniProt P00734); assay: Thrombin 1536 HTS Dose Response Confirmation. [Related pubchem assays: 1046 (Thrombin 1536 HTS; hits were confirmed in this assay)]; assay type: functional
[8] = Jurkat T cell cytotoxicity, dose response, cytotoxicity control for P. falciparum gametocyte viability project, luminescence (AID 1117277); assay type: functional, cell-based;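 also: potency reflects loss of cellular ATP meaning fewer viable cells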
[9] = P. falciparum late gametocyte killing, dose response, luminescence (AID 1117278); assay type: functional, cell-based;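 also: gametocytes exposed to compound for 24 hours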
[10] = HCT116 cell viability decrease, GSK3B pretreatment – CellTiter-Glo, IC50, dose response (AID 1117339); assay type: functional; conditions: HCT-116
[11] = RKO cell viability reduction, dose response, CellTiter-Glo luminescence (AID 1117322); assay type: functional
[12] = cytotoxicity toward HCT116 cells – cell-based, CellTiter-Glo luminescence, IC50, dose response (AID 1117332); assay type: functional; conditions: HCT-116
Cytochrome P450 1A2 = target: T5, Cytochrome P450 1A2 (Homo sapiens, UniProt P05177);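 also: PubChem cytochrome P450 panel assay, CYP1A2 panel member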
T5 sequence (P05177 whole entry): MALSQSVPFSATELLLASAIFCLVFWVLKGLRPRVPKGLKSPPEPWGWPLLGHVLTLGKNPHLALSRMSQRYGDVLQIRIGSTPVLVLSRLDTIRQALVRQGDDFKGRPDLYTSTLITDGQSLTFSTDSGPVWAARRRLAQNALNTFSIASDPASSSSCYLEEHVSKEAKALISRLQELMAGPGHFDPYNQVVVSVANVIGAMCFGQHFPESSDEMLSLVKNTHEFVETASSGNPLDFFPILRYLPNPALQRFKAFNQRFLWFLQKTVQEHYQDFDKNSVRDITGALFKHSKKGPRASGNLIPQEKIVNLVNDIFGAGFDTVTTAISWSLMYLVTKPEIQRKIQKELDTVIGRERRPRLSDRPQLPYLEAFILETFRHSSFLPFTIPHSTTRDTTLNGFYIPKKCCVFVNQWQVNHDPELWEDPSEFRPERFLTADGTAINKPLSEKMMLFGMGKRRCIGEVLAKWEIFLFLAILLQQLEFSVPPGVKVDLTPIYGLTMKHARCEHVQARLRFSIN

[13] = CellTiter-Glo luminescent dose response of DLD-1 viability loss (AID 1117352); assay type: functional
[14] = target: Heat shock protein HSP 90-alpha (Homo sapiens, UniProt P07900); assay type: functional, organism-based
[15] = Concentration-dependent survival of SW480 colon cancer line, luminescence detection with CellTiter-Glo, half-maximal inhibitory concentration (AID 1117338); assay type: functional
[16] = HeLa 4N DNA content increase, dose response, cell-based, IC50 (AID 1117351); assay type: functional
[17] = cytotoxicity toward Colo320 cells – cell-based, CellTiter-Glo luminescence, IC50, dose response (AID 1117334); assay type: functional; conditions: COLO 320
[18] = HeLa 2N DNA content increase, dose response, cell-based, IC50 (AID 1117349); assay type: functional
INS1 = assay: beta cell apoptosis inhibitors, cytokine rescue, dose response, luminescence, retest (AID 449756); assay type: functional, cell-based; conditions: Rattus norvegicus;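 also: cell death triggered by IL-1 beta plus TNF-alpha plus IFN-gamma mixture; protective hits raise ATP signal compared with cytokine alone wells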
[19] = SNU-C1 cell viability reduction, dose response, CellTiter-Glo luminescence (AID 1117323); assay type: functional, cell-based

Sequence of Eukaryotic translation initiation factor 4E (P63073 whole entry): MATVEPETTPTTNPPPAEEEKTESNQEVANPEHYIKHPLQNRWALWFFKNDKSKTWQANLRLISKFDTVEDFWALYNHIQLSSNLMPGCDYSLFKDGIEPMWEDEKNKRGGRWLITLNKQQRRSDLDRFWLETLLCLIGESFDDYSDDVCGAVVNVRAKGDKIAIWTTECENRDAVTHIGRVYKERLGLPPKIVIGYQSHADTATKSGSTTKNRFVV

CCOc1ccccc1OCc1nn2c(COc3ccccc3)nnc2s1
IC50 [1]: > 64 µM (inactive)

CCc1cccc2c(C(=O)COC(=O)c3ccc([N+](=O)[O-])s3)c[nH]c12
EC50 [2]: 7.75 µM (active) | EC50 (Streptococcus): 1.03 µM (active) | EC50 [3]: > 50 µM (active) | EC50 [4]: 0.497 µM (active) | EC50 [5]: 0.739 µM (active) | EC50 [6]: > 30 µM (not active)

O=C(Oc1ccc(Cl)cc1)c1sc2ccccc2c1Cl
IC50 (NADPH oxidase 1): > 17 µM (not active)

COc1cccc(NC(=O)CN(C)C(=O)c2cc3c(s2)CCC3)c1
IC50 (Genome polyprotein): > 49.8 µM (not active)

O=C(/C=C/c1ccc(Br)o1)OCc1nc(O)c2sccc2n1
IC50 (Genome polyprotein): 18.2 µM (not active)

Cc1cc(=O)n2ccccc2c1C#N
AC50 (CAAX prenyl protease 2): 24.9 µM (active)

Cn1c2ccccc2c(=O)c2c(=O)n(Cc3ccco3)c(COc3ccccc3)nc21
IC50 (cells): 21.2 µM (active) | EC50 [5]: 0.123 µM (active) | CC50 [7]: 32.8 µM (active) | EC50 [6]: > 60 µM (not active)

O=C(O)c1cc(-c2ccc(/C=C3/SC(=S)N(Cc4ccccc4)C3=O)o2)ccc1Cl
IC50 [1]: 15.1 µM (active)

CC(=O)Nc1ccc(-c2nc(-c3ccccc3)c(-c3ccccc3)[nH]2)cc1
IC50 (NADPH oxidase 1): > 17 µM (not active)

COc1ccc(-c2nc(-c3ccc(OC)cc3)c(-c3ccc(OC)cc3)[nH]2)cc1
IC50 (NADPH oxidase 1): > 17 µM (not active)

O=C(CSc1nc2ncnc-2c(O)[nH]1)NC1CCCCC1
IC50 (Prothrombin): > 50 µM (not active)

Cc1ccc(CN2CCN(Cc3ccc(-n4cccn4)cc3)CC2CCO)cc1 (stereo not drawn)
IC50 [8]: > 83.4 µM (inactive) | IC50 [9]: > 109 µM (inactive)

Cc1cc(C2CCCCC2)n(O)c(=O)c1 [CICLOPIROX OLAMINE]
IC50 [10]: 0.39 µM (active) | IC50 [11]: 0.233 µM (active) | IC50 [12]: 0.656 µM (active) | AC50 (Cytochrome P450 1A2): 15.8 µM (inconclusive) | IC50 [13]: 0.316 µM (active) | AC50 [14]: < 0.195 µM (active) | IC50 [15]: 0.469 µM (active) | IC50 [16]: > 10 µM (inactive) | IC50 [17]: 0.208 µM (active) | IC50 [18]: > 10 µM (inactive) | AC50 (INS1): 0.78 µM (active) | IC50 [19]: > 20 µM (inactive)
